How the values were obtained:
[1] = biological target: T1, FtsZ2-1 (Physcomitrium patens, UniProt O49922); assay: malachite green phosphate release GTPase assay; assay type: biochemical; conditions: 1 mM GTP, 7.5 µM protein, 37.5 mM glycine pH 10, 100 mM KCl, 5 mM MgCl2, 5% glycerol, 25 °C, 10 min
T1 construct: gene ftsZ 2-1; lacks N-terminal transit peptide (42 aa, TargetP-2.0); N-terminal His6-SUMO tag cleaved with Ulp1; codon-optimised, expressed in E. coli NiCo; start 43 follows from the removed 42 aa

[2] = biological target: T2, FtsZ1-2 (Physcomitrium patens, UniProt A9SRP3); assay: malachite green phosphate release GTPase assay; assay type: biochemical; conditions: 1 mM GTP, 7.5 µM protein, 37.5 mM glycine pH 10, 100 mM KCl, 5 mM MgCl2, 5% glycerol, 25 °C, 10 min
T2 construct: gene LOC112295762; lacks N-terminal transit peptide (86 aa, TargetP-2.0); N-terminal His6-SUMO tag cleaved with Ulp1; codon-optimised, expressed in E. coli NiCo; start 87 follows from the removed 86 aa
T2 sequence (A9SRP3 entry or part of it): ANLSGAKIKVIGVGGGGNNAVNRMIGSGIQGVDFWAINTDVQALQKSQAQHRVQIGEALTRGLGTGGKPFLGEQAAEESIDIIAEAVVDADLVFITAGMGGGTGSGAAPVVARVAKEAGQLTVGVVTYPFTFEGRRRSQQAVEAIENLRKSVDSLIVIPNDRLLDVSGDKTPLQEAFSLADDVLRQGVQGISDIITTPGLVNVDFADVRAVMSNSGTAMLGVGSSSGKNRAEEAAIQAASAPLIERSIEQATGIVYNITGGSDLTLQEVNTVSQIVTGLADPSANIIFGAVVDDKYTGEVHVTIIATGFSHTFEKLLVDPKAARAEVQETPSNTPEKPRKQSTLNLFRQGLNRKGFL

T1 sequence (O49922 entry or part of it): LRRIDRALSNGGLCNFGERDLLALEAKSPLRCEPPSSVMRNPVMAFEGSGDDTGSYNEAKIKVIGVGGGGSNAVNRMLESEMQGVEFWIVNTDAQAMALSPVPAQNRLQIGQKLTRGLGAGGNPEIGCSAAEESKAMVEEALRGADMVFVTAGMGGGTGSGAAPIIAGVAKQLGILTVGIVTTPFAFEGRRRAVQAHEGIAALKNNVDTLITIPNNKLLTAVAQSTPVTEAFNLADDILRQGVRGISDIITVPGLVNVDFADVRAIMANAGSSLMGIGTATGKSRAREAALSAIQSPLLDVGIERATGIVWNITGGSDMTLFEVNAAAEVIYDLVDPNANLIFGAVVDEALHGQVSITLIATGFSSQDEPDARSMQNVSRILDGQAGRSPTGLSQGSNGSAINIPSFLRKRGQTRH

In the case of `Nc1nc2c(ncn2[C@@H]2O[C@H](COP(=O)(O)OP(=O)(O)OP(=O)(O)O)[C@@H](O)[C@H]2O)c(=O)[nH]1` [GTP], the “malachite green phosphate release GTPase assay” value [1] is reported as “Both FtsZ proteins exhibited low but significant GTPase activities” and the “malachite green phosphate release GTPase assay” value [2] is reported as “Both FtsZ proteins exhibited low but significant GTPase activities”.

Source: publication PMC11760385, “Differential GTP-dependent in-vitro polymerization of recombinant Physcomitrella FtsZ proteins” (Scientific Reports, 2025)
